Test results as given in US12162878B2 (HINOVA PHARMACEUTICALS INC., priority 2018, dated 2024).
Like-named read-outs stand apart in the source and are kept apart here.

Test system: CWR22RV1 cells
Assay: Compound in combination with androgen receptor inhibitor HC-1119, proliferation of CWR22RV1 cells (CCK-8)
Assay type: cell-based, human
Settings: for IC50: Homo sapiens, CWR22Rv1, 144 h, 6 days, read-out: IC50 for inhibition on the activity of CWR22RV1
Method: • CWR22RV1 cell line (Cell Bank of Chinese Academy of Sciences, TCHu100) • FBS (Gibco, Cat. No. 10099-141) • 0.01M PBS (Biosharp, Cat. No. 162262) • RIPM1640 (Hyclone, Cat. No. 308090.01) • Penicillin-Streptomycin (Hyclone, Cat. No. SV30010) • Cell counting kit-8 (Signalway Antibody, Cat. No. CP002) • DMSO (Sigma, Cat. No. D5879) • Centrifuge Tube, 15 ml (Excell Bio, Cat. No. CS015-0001) • Cell Culture Dish, (Excell Bio, Cat. No. CS016-0128) • 96-well cell culture cluster (Corning, Cat. No. 3599) Experimental Method:
1) CWR22RV1 cells were subcultured in cell culture media, and the cells in good growth condition were seeded in a 96-well plate, 60 μL for each well, thus the number of cells per well was 2000, then the plate was cultured overnight in a 37° C., 5% CO2 cell incubator.
2) The drug was prepared with dimethyl sulfoxide (DMSO) as a 10 mM stock solution. Prior to use, the solution was diluted 3 times with DMSO, and then diluted with a 3-fold gradient to obtain 9 concentration gradients. Then, each concentration of the compound was further diluted 200 times with the culture media (to ensure that DMSO concentration in the culture system was 0.1%), 2 repeat wells for each concentration. The diluted solution of each compound (20 μL) was added to the cell culture well (with a final concentration of 10 μM, 3.3 μM, 1.1 μM . . . ); while the solution of HC-1119 was diluted with culture media to the concentrations of 50 μM and 15 μM, respectively, and the diluted solution of HC-1119 was added to the corresponding cell culture well (with a final concentration of 10 μM, 3 μM), then shaken gently for mixing. In addition, three negative control wells containing only cells and three blank control wells containing only culture media (20 μL DMSO diluted 200 times with culture media being added to six wells) were included.
(1) After culturing for 6 days, 10 μL CCK-8 was added to each well and cultured for additional 2.5 h in a 37° C., 5% CO2 cell incubator.
(2) The absorbance (OD value) at 450 nm was measured with a multifunctional microplate reader.
(3) The data was analyzed by the Dose-response-inhibition equation in the software GraphPad Prism6, and the IC50 value was obtained.

## [2H]C([2H])([2H])n1cc(-c2cc(S(C)(=O)=O)ccc2N2CCC3(CC2)CC3(F)F)c2cc[nH]c2c1=O [Compound 184, 4-(2-(1,1-difluoro-6-aza-spiro[2.5]octan-6-yl)-5-(methylsulfonyl)phenyl)-6-trideuteromethyl-1H-pyrrolo[2,3-c]pyridin-7(6H)-one]
Compound alone, CWR22RV1 cells
  IC50: 8.1 nM
In combination with 3 μM HC-1119, CWR22RV1 cells
  IC50: 2 nM
In combination with 10 μM HC-1119, CWR22RV1 cells
  IC50: 1.5 nM
In combination with HC-1119, CWR22RV1 cells
  effect of combination with HC-1119 on inhibitory action on CWR22RV1 cells (in words): improve the inhibitory action
